Patent US7157452B2, “Substituted 4,9-dihydrocyclopenta{imn}phenanthridine-5-ones derivatives thereof and their uses” (MGI GP, Inc., priority 2001, dated 2007)
Like-named read-outs stand apart in the source and are kept apart here.

Biological target: T1, purified recombinant human PARP (Homo sapiens, UniProt P09874)
T1 construct: purchased Trevigan (Gaithersburg, Md.)
Experiment: PARP enzyme assay with [3H]NAD, scintillation counting
Format: biochemical
Protocol: The reaction is initiated by incubating the mixture at 25° C. After 15 minutes of incubation, the reaction is terminated by adding 500 microliters of ice cold 20% (w/v) trichloroacetic acid. The precipitate formed is transferred onto a glass fiber filter (Packard Unifilter-GF/B) and washed three times with ethanol. After the filter is dried, the radioactivity is determined by scintillation counting.
Using the PARP assay described above, approximate IC50 (μM) values were obtained as shown in the following Table III, which also include specific embodiments of the compounds of the present invention: […]

[1] = Table III, read-out: approximate IC50

T1 sequence (P09874 whole entry): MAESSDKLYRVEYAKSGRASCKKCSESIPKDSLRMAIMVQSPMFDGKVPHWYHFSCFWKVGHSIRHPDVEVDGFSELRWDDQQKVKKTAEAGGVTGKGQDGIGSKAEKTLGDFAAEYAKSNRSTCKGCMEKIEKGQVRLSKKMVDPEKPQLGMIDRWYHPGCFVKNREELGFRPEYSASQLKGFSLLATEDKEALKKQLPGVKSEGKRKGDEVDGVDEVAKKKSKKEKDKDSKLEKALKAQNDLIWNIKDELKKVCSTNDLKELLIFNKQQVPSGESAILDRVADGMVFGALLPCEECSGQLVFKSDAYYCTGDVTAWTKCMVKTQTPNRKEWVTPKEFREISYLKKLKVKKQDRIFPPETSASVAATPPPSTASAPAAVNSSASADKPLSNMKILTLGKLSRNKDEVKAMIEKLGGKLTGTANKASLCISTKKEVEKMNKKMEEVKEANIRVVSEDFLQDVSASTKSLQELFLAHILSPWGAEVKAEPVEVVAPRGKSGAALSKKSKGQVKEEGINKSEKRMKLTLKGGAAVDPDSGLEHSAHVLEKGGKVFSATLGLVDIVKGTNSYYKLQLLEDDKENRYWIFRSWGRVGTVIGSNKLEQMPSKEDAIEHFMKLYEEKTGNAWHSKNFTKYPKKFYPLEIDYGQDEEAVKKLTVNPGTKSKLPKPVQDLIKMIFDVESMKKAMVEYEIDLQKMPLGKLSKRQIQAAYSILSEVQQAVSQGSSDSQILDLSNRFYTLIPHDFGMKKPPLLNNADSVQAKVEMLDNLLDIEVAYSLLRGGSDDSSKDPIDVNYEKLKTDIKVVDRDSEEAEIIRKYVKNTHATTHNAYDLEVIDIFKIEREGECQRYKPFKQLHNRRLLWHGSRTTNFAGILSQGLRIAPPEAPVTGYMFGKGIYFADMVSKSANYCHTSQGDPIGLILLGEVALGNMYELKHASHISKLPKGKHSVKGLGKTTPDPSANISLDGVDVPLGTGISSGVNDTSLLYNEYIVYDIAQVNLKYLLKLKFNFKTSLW

SMILES	IC50 [1]	IC50 (examples table, read-out: IC50)
CCOC(=O)C1CCCN(S(=O)(=O)c2ccc3[nH]c(=O)c4cccc5c4c3c2C5)C1 (centres unmarked) [Example 2, 1-(5-Oxo-5,9-dihydro-4H-cyclopenta[lmn]phenanthridine-1-sulfonyl)-piperidine-3-carboxylic acid ethyl ester]	0.137 µM	0.137 µM
O=c1[nH]c2ccc(S(=O)(=O)N3CCN(CC4CCCO4)CC3)c3c2c2c(cccc12)C3 (centres unmarked) [Example 3]	0.247 µM	0.247 µM
O=c1[nH]c2ccc(S(=O)(=O)NCCCc3ccccc3)c3c2c2c(cccc12)C3 [Example 4]	1.13 µM	1.13 µM
O=c1[nH]c2ccc(S(=O)(=O)NCCN3CCCC3)c3c2c2c(cccc12)C3 [Example 5]	0.089 µM	0.089 µM
O=c1[nH]c2ccc(S(=O)(=O)NCCCN3CCOCC3)c3c2c2c(cccc12)C3 [Example 6]	0.063 µM	0.063 µM
O=c1[nH]c2ccc(S(=O)(=O)N3CCN(c4ccc(C(F)(F)F)cc4)CC3)c3c2c2c(cccc12)C3 [Example 7]	0.269 µM	0.269 µM
O=c1[nH]c2ccc(S(=O)(=O)N3CCN(c4ccc(F)cc4)CC3)c3c2c2c(cccc12)C3 [Example 8]	0.335 µM	0.335 µM
O=c1[nH]c2ccc(S(=O)(=O)N3CCN(c4ccc(F)cc4F)CC3)c3c2c2c(cccc12)C3 [Example 9]	0.211 µM	0.211 µM
CN1CCN(NS(=O)(=O)c2ccc3[nH]c(=O)c4cccc5c4c3c2C5)CC1 [Example 10]	0.129 µM	0.129 µM
O=C(CNCCN1CCCC1)Nc1ccc2[nH]c(=O)c3cccc4c3c2c1C4 [Example 11]	0.049 µM	0.049 µM
CN1CCN(CCCNS(=O)(=O)c2ccc3[nH]c(=O)c4cccc5c4c3c2C5)CC1 [Example 12]	0.064 µM	0.064 µM
CCN(CC)CCNS(=O)(=O)c1ccc2[nH]c(=O)c3cccc4c3c2c1C4 [Example 13]	0.048 µM	0.048 µM
CCN(CC)CCCNS(=O)(=O)c1ccc2[nH]c(=O)c3cccc4c3c2c1C4 [Example 14]	0.091 µM	0.091 µM
O=c1[nH]c2ccc(S(=O)(=O)NCCc3ccccn3)c3c2c2c(cccc12)C3 [Example 15]	0.114 µM	0.114 µM
O=c1[nH]c2ccc(S(=O)(=O)NN3CCOCC3)c3c2c2c(cccc12)C3 [Example 16]	0.092 µM	0.092 µM
CN(C)CCN(C)S(=O)(=O)c1ccc2[nH]c(=O)c3cccc4c3c2c1C4 [Example 17]	0.154 µM	0.154 µM
CN(C)CCCN(C)S(=O)(=O)c1ccc2[nH]c(=O)c3cccc4c3c2c1C4 [Example 18]	0.11 µM	0.11 µM
CN1CCN(CCCNS(=O)(=O)c2ccc3[nH]c(=O)c4cccc5c4c3c2C5)CC1 [Example 19]	0.052 µM	0.052 µM
CCN(CC)CCNS(=O)(=O)c1ccc2[nH]c(=O)c3cccc4c3c2c1C4 [Example 20]	0.077 µM	0.077 µM
CN(C)CCCN1CCN(S(=O)(=O)c2ccc3[nH]c(=O)c4cccc5c4c3c2C5)CC1 [Example 21]	0.064 µM	0.064 µM
O=c1[nH]c2ccc(S(=O)(=O)N3CCN(CCN4CCCC4)CC3)c3c2c2c(cccc12)C3 [Example 22]	0.115 µM	0.115 µM
CN1CCC(N2CCN(S(=O)(=O)c3ccc4[nH]c(=O)c5cccc6c5c4c3C6)CC2)CC1 [Example 23]	0.166 µM	0.166 µM
O=c1[nH]c2ccc(S(=O)(=O)N3CCN(c4ccncc4)CC3)c3c2c2c(cccc12)C3 [Example 24]	0.929 µM	0.929 µM

SMILES	IC50 [1]	IC50 (examples table, read-out: IC50)
CN1CCC(CN2CCN(S(=O)(=O)c3ccc4[nH]c(=O)c5cccc6c5c4c3C6)CC2)CC1 [Example 25]	0.165 µM	0.165 µM
O=c1[nH]c2ccc(S(=O)(=O)N3CCN(CCN4CCCCC4)CC3)c3c2c2c(cccc12)C3 [Example 26]	0.314 µM	0.314 µM
O=c1[nH]c2ccc(S(=O)(=O)N3CCN(CCN4CCOCC4)CC3)c3c2c2c(cccc12)C3 [Example 27]	0.634 µM	0.634 µM
O=c1[nH]c2ccc(S(=O)(=O)N3CCN(Cc4ccncc4)CC3)c3c2c2c(cccc12)C3 [Example 28]	0.406 µM	0.406 µM
CN(C)CCCN1CCN(S(=O)(=O)c2ccc3[nH]c(=O)c4cccc5c4c3c2C5)CC1 [Example 29]	0.109 µM	0.109 µM
O=c1[nH]c2ccc(S(=O)(=O)N3CCN(CCN4CCCC4)CC3)c3c2c2c(cccc12)C3 [Example 30]	0.264 µM	0.264 µM
CN1CCN(CC(=O)Nc2ccc3[nH]c(=O)c4cccc5c4c3c2C5)CC1 [Example 31, 2-(4-Methyl-piperazin-1-yl)-N-(5-oxo-5,9-dihydro-4H-cyclopenta[lmn]phenanthridin-1-yl)-acetamide]	0.045 µM	0.045 µM
CC(=O)N1CCN(CC(=O)Nc2ccc3[nH]c(=O)c4cccc5c4c3c2C5)CC1 [Example 32, 2-(4-Acetyl-piperazin-1-yl)-N-(5-oxo-5,9-dihydro-4H-cyclopenta[lmn]phenanthridin-1-yl)-acetamide]	0.036 µM	0.036 µM
O=C(CN1CCN(Cc2ccccc2)CC1)Nc1ccc2[nH]c(=O)c3cccc4c3c2c1C4 [Example 33]	0.218 µM	0.218 µM
O=C(CN1CCOCC1)Nc1ccc2[nH]c(=O)c3cccc4c3c2c1C4 [Example 34]	0.058 µM	0.058 µM
O=C(CN1CCN(CC2CCCO2)CC1)Nc1ccc2[nH]c(=O)c3cccc4c3c2c1C4 (centres unmarked) [Example 35]	0.193 µM	0.193 µM
O=C(CNCCCc1ccccc1)Nc1ccc2[nH]c(=O)c3cccc4c3c2c1C4 [Example 36]	0.188 µM	0.188 µM
O=C(CNCCCN1CCOCC1)Nc1ccc2[nH]c(=O)c3cccc4c3c2c1C4 [Example 37]	0.178 µM	0.178 µM
O=C(CNCCN1CCCCC1)Nc1ccc2[nH]c(=O)c3cccc4c3c2c1C4 [Example 38]	0.175 µM	0.175 µM
O=C(CN1CCN(c2ccc(C(F)(F)F)cc2)CC1)Nc1ccc2[nH]c(=O)c3cccc4c3c2c1C4 [Example 39]	0.219 µM	0.219 µM
O=C(CN1CCN(c2ccc(F)cc2)CC1)Nc1ccc2[nH]c(=O)c3cccc4c3c2c1C4 [Example 40]	0.23 µM	0.23 µM
O=C(CN1CCN(c2ccc(F)cc2F)CC1)Nc1ccc2[nH]c(=O)c3cccc4c3c2c1C4 [Example 41]	0.336 µM	0.336 µM
O=C(CN1CCN(c2ccccn2)CC1)Nc1ccc2[nH]c(=O)c3cccc4c3c2c1C4 [Example 42]	0.158 µM	0.158 µM
O=C(CN1CCC(N2CCCC2)CC1)Nc1ccc2[nH]c(=O)c3cccc4c3c2c1C4 [Example 44]	0.094 µM	0.094 µM
CCN(CC)CCNCC(=O)Nc1ccc2[nH]c(=O)c3cccc4c3c2c1C4 [Example 45]	0.133 µM	0.133 µM
CCN(CC)CCCNCC(=O)Nc1ccc2[nH]c(=O)c3cccc4c3c2c1C4 [Example 46]	0.118 µM	0.118 µM
O=C(CNCCN1CCOCC1)Nc1ccc2[nH]c(=O)c3cccc4c3c2c1C4 [Example 47]	0.457 µM	0.457 µM
CN(C)CCCN(C)CC(=O)Nc1ccc2[nH]c(=O)c3cccc4c3c2c1C4 [Example 48]	0.144 µM	0.144 µM
